Columns and labels:
[1] = test system: HL-60, HT-168, PC-3 and T47D cells; experiment: Viability of four human cancer cell types by Trypan blue exclusion; format: cell-based
Method: PC-3 human prostate adenocarcinoma cells were cultured in 12-well plates in Ham's F12 cell culture medium supplemented with 7% fetal bovine serum; the medium was changed for fresh 10% medium 2 hours prior to treatments. HL-60 human leukemia cells (in flasks) and HT 168 human melanoma cells were cultured in RPMI 1640 medium supplemented with 10% FCS; treatment of HL-60 and HT-168 cells were performed in flasks and 12-well plates, respectively. T47D cells were cultured in 12-well plates in RPMI 1640 medium supplemented with 2 mM L-glutamine, 10 mM Hepes, 1 mM sodium pyruvate, 4.5 g/L glucose, 1.5 g/L sodium bicarbonate, 0.2 I.U. bovine insulin/ml, and 10% fetal bovine serum; the medium was changed for fresh 10% serum-containing medium 2 hours prior to treatments. All cells were incubated for 96 hours in the absence (□) or presence of 25 μM CCDTHT ? , 50 μM CCDTHT ? , or 75 μM CCDTHT (▪). In this experiment, the viability of the cell cultures was estimated by Trypan blue exclusion using hematocytometer, a technique well known to one having ordinary skill in the art. Three independently treated cell cultures, involving at least 300 cells for each treatment, were analyzed. The experimental error is indicated as std. dev.

MXT tumor = experiment: MXT mouse mammary tumor model: tumor volume and survival; format: in vivo; conditions: Example 31
Source text: Tumors were developed in first generation hybrid BDF1 (C57 B1 female×DBA/2 male) adult female mice kept at specified pathogen free (SPF) hygienic level. Suspensions of HL-60 human leukemia cells, or approximately 0.1 cm^3 volume of tumor tissue derived from HT-168 human melanoma, PC-3 human prostate adenocarcinoma, T47D human breast carcinoma, MXT mouse mammary cancer, or mouse B16 melanoma cells were implanted subcutaneously to develop the tumors. After 12-18 days when the tumor-bearing mice were first treated, the size of the tumors was in the 0.2-0.4 cm^3 range. All compounds used were dissolved in physiological (0.9%) saline (NaCl), and the agents, alone or in combinations, were applied subcutaneously or intraperitoneally in 50 μl volume. Tumor volume was determined by calipers in three dimensions; this technique is well known to one having ordinary skill in the art. Tumor volume was calculated according to the generally accepted formula: V=a^2×b×π/6, where “a” and “b” mean the shortest and longest diameter, respectively, of the measured tumor.
The mouse mammary MXT tumor was developed as described above. On day 7 after transplantation of tumor cells, the animals were either remained untreated (group 1) or were treated with 2 mg/kg of CisPt alone (Group 2), or 4 mg/kg of CisPt alone (Group 3), or 4.6 mg/kg of CCDTHT alone (Group 4), or 2 mg/kg of CisPt+4.6 mg/kg of CCDTHT (Group 5), or 4 mg/kg of CisPt+4.6 mg/kg of CCDTHT (Group 6). CCDTHT and CisPt were administered subcutaneously and intraperitoneally, respectively, once daily for 10 days, including a 2-day rest period after 5 days of treatment (i.e., the last treatment was on day 19). Each group consisted of 7 animals, and the mean values±std. dev. for tumor volumes and body weight are shown in TABLE 4 and TABLE 5, respectively. While in this tumor model CCDTHT alone reduced the tumor volume less effectively than in the human tumor models, it clearly added to the tumor volume-reducing effect of CisPt (TABLE 4). A dramatic reduction in tumor volume was particularly evident in Group 6 (4 mg/kg CisPt+4.6 mg/kg CCDTHT).
The mouse mammary MXT tumor model was developed and treated as described above. On day 7 the animals were either remained untreated (Group 1) or were treated with 3 mg/kg of CisPt (Group 2) or 3 mg/kg of CisPt+15 mg/kg of highly purified PALP (Group 3). CisPt and PALP were administered intraperitoneally and subcutaneously, respectively, seven times on every second day (i.e., treatments were terminated on day 21). Each group included 7 animals; the mean values±std. dev. for tumor volumes and body weight are shown in TABLE 6 and TABLE 7, respectively.
The mouse mammary MXT tumor model was developed and treated as described above. On day 7 the animals either remained untreated (Group 1) or were treated with 3 mg/kg CisPt (Group 2), 3 mg/kg CisPt+4.6 mg/kg of CCDTHT (Group 3), or 3 mg/kg CisPt+4.6 mg/kg of CCDTHT+15 mg/kg highly purified PALP (Group 4). CisPt was administered intraperitoneally 9-times once every second day; CCDTHT was administered for 15 days once daily; and PALP was administered 3 times every 3rd day. In each group 7 mice were included. The mean values±std. dev. for tumor volumes and body weights are shown in TABLE 9 and TABLE 10, respectively.

[2] = CisPt 2 mg/kg i.p. and/or CCDTHT 4.6 mg/kg s.c., once daily

With CC[N+](C)(CC)CCOCc1ccc2sc3ccccc3c(=O)c2c1.[I-] [CCDTHT, N,N-diethyl-N-methyl-2-[(9-oxo-9H-thioxanthen-2-yl)methoxy]-ethanaminium iodide] the “number of viable cancer cells, HL-60, HT-168, PC-3 and T47D” value ([1]; 50-75 μM, four days) was “strongly decreased”, the inhibition at 25 µM ([1]; Homo sapiens, 25 μM, 96 hours, Trypan blue, read-out: inhibition of cell proliferation, HL60, HT-168, PC-3 and T47D cells) was 40 to 55% and the cytotoxicity at 75 µM ([1]; Homo sapiens, 75 μM, 96 hours, Trypan blue, read-out: decrease in the number of viable cells, HL60, HT-168, PC-3 and T47D cells) was 65 to 85%. For the same compound, the survival (MXT tumor; CisPt 2 mg/kg and/or CCDTHT 4.6 mg/kg (groups 2, 4, 5)) was 30.6 ± 3.2 days, the “Tumor volume, Day 14” value (MXT tumor; [2]) was 4.14 ± 0.71 cm^3 and the “Tumor volume, Day 18” value (MXT tumor; [2]) was 6.62 ± 0.43 cm^3. The “Tumor volume, Day 21” value (MXT tumor; [2]) was 9.35 ± 0.69 cm^3 and the “Tumor volume, Day 7” value (MXT tumor; CisPt 2 mg/kg i.p. and/or CCDTHT 4.6 mg/kg s.c., start of treatment) was 0.43 ± 0.07 cm^3.

— patent US7943606B2, “Compositions and methods to control abnormal cell growth” (CanCure Laboratories, LLC, priority 2005, dated 2011)
